According to US8445441B2, “Inhibitors of BCL-2” (Case Western Reserve University, priority 2007, dated 2013):

Key:
Jurkat cells [1] = test: IP3 ester-induced Ca2+ elevation; assay type: cell-based; details: D-myo InsP3 hexakisbutyryloxymethyl ester
Text: To exclude the possibility that peptide 2 may interfere with the upstream TCR activation pathway, a cell-permeant IP3 ester (D-myo InsP3 hexakisbutyryloxymethyl ester) was used to bypass TCR activation and anti-CD3-induced IP3 generation.

[2] = system: murine embryonic fibroblasts (MEFs); test: unidirectional 45Ca2+ flux, IP3-induced efflux; assay type: cell-based; details: in the presence of thapsigargin
Text: The conclusion that peptide 2 acts directly on the Bcl-2-IP3R interaction is supported not only by experiments described above (FIG. 5) in which peptide 2 reversed Bcl-2-mediated inhibition of IP3R channel opening in vitro, but also by unidirectional ^45Ca^2+ flux experiments that allow for very accurate quantification of Ca^2+ release through IP3Rs located on the ER. These experiments require firmly adherent cells, and therefore murine embryonic fibroblasts (MEFs), which have a somewhat lower level of endogenous Bcl-2 than Jurkat cells, were employed. The rate of IP3-induced ^45Ca^2+ efflux was measured in the presence of thapsigargin, which completely prevents ER Ca^2+ reuptake.

Jurkat cells [3] = test: anti-CD3-induced apoptosis (apoptotic nuclei); assay type: cell-based
Protocol: FIG. 7 illustrates peptide 2 Enhances Anti-CD3-Induced Apoptosis in Bcl-2-Positive Cells (A) Typical apoptotic nuclear morphology (arrow, Hoechst 33342 stain) 24 hr after 5 μg/ml anti-CD3 treatment of Jurkat cells. Scale bars, 10 μm. (B) Bcl-2(−) and Bcl-2(+) WEHI7.2 cells were pre-incubated±60 μM peptides plus Chariot reagent and then incubated with 20 μg/ml anti-CD3 for 24 hr. Symbols represent the percentage of cells (mean±SEM) with apoptotic nuclei in three experiments for Bcl-2(−) and five experiments for Bcl-2(+) cells (200 cells counted per coverslip). (C) Jurkat cells were pre-incubated±60 μM peptides±Chariot reagent and then incubated with 5 μg/ml anti-CD3 for 24 hr. Symbols represent the percentage of cells (mean±SEM) with apoptotic nuclei in five experiments (240 cells counted per coverslip).
Peptide 2 also attenuated Bcl-2's inhibition of anti-CD3-induced apoptosis in Jurkat cells. In preliminary studies (data not shown), we tested several anti-CD3 concentrations. Higher concentrations of anti-CD3 induced high levels of apoptosis that might obscure the effect of the peptide. We therefore used 5 μg/ml anti-CD3, sufficient to induce 20%-30% apoptosis.

Jurkat cells [4] = test: Fas-induced Ca2+-independent apoptosis; assay type: cell-based
[5] = system: primary chronic lymphocytic leukemia cells; test: cell killing by trypan blue dye exclusion, combination with ABT737; assay type: cell-based; details: primary CLL cells, peptide combined with ABT737, 24 hours
Text: FIG. 10 illustrates a graph comparing the cell death percentage of chronic lymphocytic leukemia cells treated with combinations of ABT-737 and a peptide comprising SEQ ID NO: 3 and controls.
FIG. 11 illustrates a graph comparing the cell death percentage of chronic lymphocytic leukemia cells treated with ABT-737, a peptide comprising SEQ ID NO: 3, combinations thereof, and controls.
To test this hypothesis, we performed the experiments summarized below. […] Additions were made to CLL cells and cell death measured 24 hours later.

Bcl-2-IP3R interaction = Bcl-2-IP3R interaction (Homo sapiens, UniProt P10415); test: GST pull-down of Bcl-2 from Bcl-2(+) WEHI7.2 extracts with GST-IP3R domain 3; assay type: binding, mouse; set-up: expressed in transfected cells; host or cells: Bcl-2(+) WEHI7.2 cells (source of Bcl-2)
Chain of Bcl-2-IP3R interaction (P10415 whole entry, the tested form may be a part): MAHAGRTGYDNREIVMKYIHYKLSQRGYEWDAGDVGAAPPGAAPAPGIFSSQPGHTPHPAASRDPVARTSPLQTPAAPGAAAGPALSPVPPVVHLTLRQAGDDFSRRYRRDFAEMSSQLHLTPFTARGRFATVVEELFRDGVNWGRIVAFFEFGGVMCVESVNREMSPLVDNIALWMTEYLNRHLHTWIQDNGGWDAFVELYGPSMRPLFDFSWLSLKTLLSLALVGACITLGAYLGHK
Text: To identify where Bcl-2 interacts on the IP3R, we used a series of GST-IP3R fusion constructs corresponding to five fragments covering the first N-terminal 2216 amino acids and 1 fragment corresponding to the last 160 amino acids of mouse IP3R type 1 (FIG. 3). These fragments are located in the cytoplasm and coincide with “natural” domains generated by limited proteolysis. The transmembrane domain was not included. After purification, fragments migrated as single prominent bands corresponding to their expected molecular weights, although some minor degradation products were detected.
The first set of GST pull-down experiments utilized extracts of Bcl-2(+) WEHI7.2 cells and Jurkat cells as two independent sources of Bcl-2. Cell extracts were incubated with GST-IP3R fragments prebound to glutathione sepharose resin, with equal loading of the GST-IP3R fragments. […] These experiments were repeated a total of five times with the same result. It is important to note that, following incubation of cell extracts with GST-IP3R fragments on the glutathione sepharose resin, the resin was washed extensively.
Since the IP3R binding region was narrowed down to the 80 amino acid subdomain 3a1 (aa 1347-1426), we designed two 20 amino acid peptides (peptide 1, aa 1365-1384 (SEQ ID NO:2); peptide 2, aa 1389-1408 (SEQ ID NO:3)) based on the degree of homology in this region among different IP3R isoforms. Also, preference was given to regions that have beta-turn and/or α-helical structures, rather than random-coil or nonstructured sequences, expecting that one or both of the peptides could inhibit the Bcl-2-IP3R interaction. Furthermore, the C-terminal region of domain 3a1 was not selected because of its lower accessibility and unpredictable secondary structure (Invitrogen PeptideSelect Design Tool). The scrambled sequence of peptide 2 was also synthesized and used as a control. […] The inhibitory effect of peptide 2 on Bcl-2-IP3R interaction was also detected in coimmunoprecipitation assays employing both Bcl-2(+) WEHI7.2 cells (FIGS. 4A and 4B) and Jurkat cells (FIG. 4C). […]

Q: How did the “IP3 ester-induced Ca2+ elevation” value (Jurkat cells [1]) turn out when “NVYTEIKCNSLLPLDDIVRV (listed as Homo sapiens) [peptide 2, 20 amino acid peptide, aa 1389-1408 of IP3R subdomain 3a1]” was run?
A: enhanced

Q: And the “rate of IP3-induced 45Ca2+ efflux” value [2]?
A: significantly increased

Q: And the “anti-CD3-induced apoptosis (percentage of apoptotic cells)” value (Jurkat cells [3]; 60 μM peptide with Chariot, 5 μg/ml anti-CD3, 24 hr, anti-CD3 alone 20%-30%)?
A: 40%-45%

Q: What about the “effect on anti-CD3-induced apoptosis” value (Jurkat cells [3]; peptide in the absence of Chariot reagent) of the same sequence?
A: did not have an effect

Q: What about the “enhancement of Fas-induced Ca2+-independent apoptosis” value (Jurkat cells [4]) of the same sequence?
A: did not enhance

Q: What about the “cell death induction by ABT737” value [5] of the same sequence?
A: enhances cell death induction

Q: What about the “amount of Bcl-2 bound to GST-IP3R domain 3” value (Bcl-2-IP3R interaction; 200 μM peptide) of the same sequence?
A: significantly decreased

Q: And the “amount of Bcl-2 bound to GST-IP3R domain 3” value (Bcl-2-IP3R interaction; 1 mM peptide)?
A: significantly decreased
